Structures are written as SMILES.

Data set [1] has as its system Rho. As to the kind of experiment: Rho activation assay in Hs578T cells. The data set is classed as cell-based, human. To be noted: all time points, especially 16 and 24 h post-EGF stimulation; vs controls. On the procedure:
The concentration of stearate used to treat the Hs578T cells was 50 μM. When EGF was used, the concentration was 1 nM EGF. Before the treatment with stearate or EGF, cells were first starved for 24-48 hours. Stearate was loaded onto fatty acid-free bovine serum albumin (BSA) according to the method reported by Spector et al. (13); briefly, stearate (0.5 g) was dissolved in chloroform (100 ml) and mixed well with 10 g diatomaceous earth in a 1 liter flask. The mixture was stirred and dried under nitrogen until powder. BSA is a physiological carrier of fatty acids and was used to avoid the introduction of organic solvents to solutions coming into contact with cells. Fatty acid-free BSA (1 g) was dissolved in 100 ml with Dulbecco's modified Eagle's medium without phenol red and mixed with 3 g of the stearate/diatomaceous earth mixture with stirring for 45 min. The stearate/BSA solution was filtered through a 0.45 μm filter, and adjusted to pH 7.4. The concentration of stearate in the solution was detected with the NEFA C Kit from Wako Chemicals GmbH (Neuss, Germany). […]
Ras and Rho activation assay kits were purchased from Millipore (Billerica, Mass.). […] The beads were washed three times with lysis buffer B. Bound Ras-GTP and Rho-GTP proteins were detected by immunoblot using Ras and Rho antibodies.

The test system of data set [2] is 3T3L1 cells. As to the kind of experiment: 3T3L1 cell differentiation (oil red O staining). The data set is classed as cell-based, mouse. To be noted: 50 μM during differentiation. On the procedure: 3T3L1 mouse fibroblast cells (ATCC, CL-173™) were maintained according to the manufacture's protocol, in Dulbecco's modified eagle's medium (DMEM) containing 10% Fetal Bovine Serum and antibiotics (M1 medium). Adipocyte differentiation was performed according to standard procedures (42). Briefly, the 3T3L1 fibroblasts were seeded at 30% confluence and allowed to grow to near 100% confluence. On the day after reaching maximum confluence, conversion was induced by replacing the M1 medium with M1 medium containing insulin (5 μg/ml), dexamethasone (0.25 μM), and 3-isobutyl-1-methyl-xanthine (0.5 mM). After 2 days, the cells were changed to M1 medium with insulin (5 μg/ml) for an additional 2 days. […]
50 μM of stearate, oleate or linoleate was used to treat 3T3L1 cells as this concentration is centered within the normal range for non-esterified stearate in the plasma of humans. […] The concentration of stearate in the solution was detected by use of a NEFA C kit. […]
Cellular lipids were stained with oil red O. Briefly, identical numbers of 3T3L1 cells were placed in 6-well plates, cultured and converted to adipocytes as described above. […] 200 cells were counted under the microscope in each sample, and the percentage of converted adipocytes was calculated. […] The oil red O was then eluted with 1 ml 100% isopropanol, and the OD was measured at 520 nm in a spectrophotometer.

Data set [3] deals with 3T3L1 preadipocytes. Briefly: Cell death and apoptosis of 3T3L1 preadipocytes (trypan blue, LDH, flow cytometry). The data set is classed as cell-based, mouse. The following applies: 50 μM, vs control. On the procedure: 50 μM of stearate, oleate or linoleate was used to treat 3T3L1 cells as this concentration is centered within the normal range for non-esterified stearate in the plasma of humans. Stearate, oleate, or linoleate was loaded onto fatty acid free BSA according to the method reported by Spector and Hoak (Spector and Hoak, 1969). Briefly, stearate (0.5 g) was dissolved in chloroform (100 mL) and mixed well with 10 g diatomaceous earth in a 1 liter flask. The mixture was stirred and dried under nitrogen until powder. Fatty acid free BSA (1 g) was dissolved in 100 mL with DMEM without phenol red and mixed with 3 g of the stearate/diatomaceous earth mixture and stirred for 30 minutes. The stearate/BSA solution was filtered through a 0.45 μm filter, and adjusted to pH 7.4. The concentration of stearate in the solution was detected by use of a NEFA C kit. Oleic and linoleate were loaded in the same way. […] Before the treatment with fatty acid, 3T3L1 preadipocytes were grown to 100%, and were starved in 2% FBS medium for 24 hours.
After treatment, 3T3L1 cells were harvested, washed with cold PBS, and then resuspended in 100 μl annexin-binding buffer (50 mM HEPES, 700 mM NaCl, 12.5 mM CaCl2, pH 7.4). Cell density was determined, and the cells were diluted to 10^6 cells. Then 5μL of Alex Fluo 488 annexin V and 1 μL propidium iodide (PI) were added. Cells were gently oscillated and incubated for 15 min at room temperature. After adding 400 μL of binding buffer to each tube, cells were kept on ice and analyzed by flow cytometry within 1 hour. Cells that stained positive for Alex Fluo 488 annexin V and negative for PI were considered to be apoptotic. Cells that stained positive for both Alex Fluo 488 annexin V and PI were considered either in the end stage of apoptosis, or necrosis. Cells that stained negative for both Alex Fluo 488 annexin V and PI were considered alive and not undergoing measurable apoptosis. A BD LSR II flow cytometer from Becton Dickinson was used in all flow experiments and the data were analyzed with BD FACSDiva™ software V.6.1.3.
Lactate dehydrogenase (LDH) release was measured using a cytotoxicity detection kit, according to the manufacture's protocol. After 3T3L1 cells were treated, 1 ml of cell culture medium was removed and centrifuged. The supernatant was retained for assaying. For determinations, 100 μl of LDH assay reagent was added to 100 μl of supernatant and incubated for 30 min at room temperature in the dark. Absorbance was measured at 490 nm. Background release from culture medium alone was subtracted before reporting. Maximum release was measured after adding 2% Triton X-100 to untreated cells.
After treatment, 3T3L1 cells were harvested and stained with 0.4% trypan blue solution. Cells in the four corners of the grid were counted under a conventional bright field binocular microscope.
A general note: In flow cytometry, cells or beads pass a laser one at a time.

For the compound `CCCCCCCCCCCCCCCCCC(=O)O` [stearate, Stearic acid], the Rho-GTP result in data set [1] is on record as “decreased”. Also, in data set [2], the “Oil red O eluted, OD value” is on record as “no difference”. In addition, the “Percentage of differentiated adipocytes” value in data set [2] (vs control) was “no significant difference”. Also, the “Percentage of dead cells (trypan blue)” value in data set [3] (48 hour treatment) was “significantly increased”. In addition, in data set [3] (48 hours), the “Dead cells (flow cytometry)” value was “increase”. For the same compound, the “Cytotoxicity (lactate dehydrogenase)” value in data set [3] (after 24 hours) was “significantly increased”. In addition, in data set [3], the “Apoptotic cells (flow cytometry)” value is “significantly increased”.

The values are drawn from patent US20140357706A1, “Stearate Compounds” (THE UAB RESEARCH FOUNDATION, priority 2011, published 2014).
